According to patent US20260217687A1 (NeoPhore Limited, priority 2023, published 2026):

Molecular target: T1, recombinant N-terminal MLH1 (residues 15-340) (Homo sapiens, UniProt P40692)
T1 construct: recombinant N-terminal MLH1 (residues 15-340)
T1 sequence (P40692 15-340): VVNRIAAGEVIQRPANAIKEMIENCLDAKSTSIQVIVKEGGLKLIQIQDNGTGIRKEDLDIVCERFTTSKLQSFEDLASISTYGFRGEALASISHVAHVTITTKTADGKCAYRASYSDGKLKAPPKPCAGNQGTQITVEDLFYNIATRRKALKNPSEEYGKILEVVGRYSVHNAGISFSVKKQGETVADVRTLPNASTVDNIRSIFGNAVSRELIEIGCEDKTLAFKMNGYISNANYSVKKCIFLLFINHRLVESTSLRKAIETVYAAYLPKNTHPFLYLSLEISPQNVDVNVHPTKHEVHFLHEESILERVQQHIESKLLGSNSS
Test: Fluorescence Polarisation Assay for MLH1
Format: binding
Conditions: 100 nM N-terminal MLH1, 5 nM probe compound
Protocol: Fluorescence Polarisation Assay for MLH1
Test compounds, as 10 mM DMSO stocks, were dispensed into a 384-well Low Flange Black Flat Bottom Polystyrene Non-binding Surface plate (Corning®, item number 3575) using a Labcyte Echo acoustic liquid handler. […] 20 μL of a 2× solution (200 nM) of recombinant N-terminal MLH1 (residues 15-340) in assay buffer (25 mM HEPES, pH 7.5, 250 mM NaCl, 10 mM MgCl2, 0.01% Triton X-100, 5 mM Dithiothreitol) was added to all wells in columns 1-23 and 20 μL assay buffer was added to all wells in column 24 using an E1-ClipTip pipette (ThermoFisher). Plates were centrifuged for 1 minute at 250 xg and were incubated at room temperature for 30 minutes prior to the addition of 20 μL of 2×(10 nM) of 5-((5-(4-((2-(2-(Benzyloxy)-4,6-dihydroxybenzoyl)isoindolin-5-yl)methyl)piperazin-1-yl)pentyl)carbamoyl)-2-(6-(dimethylamino)-3-(dimethyliminio)-3H-xanthen-9-yl)benzoate (referred to hereinafter as “probe compound”) in assay buffer (prepared from a 1 mM DMSO stock) with an E1-ClipTip pipette (ThermoFisher). The final concentration of N-terminal MLH1 was 100 nM and the final concentration of the probe compound was 5 nM. Compound plates were centrifuged for 1 minute at 250 xg for 1 minute and immediately read on a PheraStar FSX (fitted with 384-well aperture spoon and 590 675 675 FP optic module). The gain and focus were adjusted before each plate was read so that the polarisation of a no enzyme control (column 24) was equal to 35 mP. Data were normalised against the no inhibitor controls (column 23) and no enzyme controls (column 24).

| SMILES | IC50 |
| --- | --- |
| CN1CC[C@@H](Oc2ccc3c(c2)CN(C(=O)c2c(O)cc(C(F)F)cc2OCc2ccccc2)C3)C1 [Example 4.55, (R)-(2-(Benzyloxy)-4-(difluoromethyl)-6-hydroxyphenyl)(5-((1-methylpyrrolidin-3-yl)oxy)isoindolin-2-yl)methanone] | < 0.1 µM |
| CN1CCC(Oc2ccc3c(c2)CCN(C(=O)c2c(O)cc(C#N)cc2OCc2ccccc2)CC3)CC1 [Example 27.6, 3-(Benzyloxy)-5-hydroxy-4-(7-((1-methylpiperidin-4-yl)oxy)-2,3,4,5-tetrahydro-1H-benzo[d]azepine-3-carbonyl)benzonitrile hydroformate] | 1 to 10 µM |
| CN(C)CCOc1nc2c(c(NC3CCOC3)n1)CN(C(=O)c1c(O)cc(C(F)F)cc1OCc1ccccc1)CC2 (centres unmarked) [Example 27.17, (2-(Benzyloxy)-4-(difluoromethyl)-6-hydroxyphenyl)(2-(2-(dimethylamino)ethoxy)-4-((tetrahydrofuran-3-yl)amino)-7,8-dihydropyrido[4,3-d]pyrimidin-6(5H)-yl)methanone] | 0.1 to 1 µM |
| COc1ccc(COc2cc(C(F)F)cc(O)c2C(=O)N2Cc3cccc(N[C@H]4CCOC4)c3C2)cc1 [Example 4.8, (S)-(4-(Difluoromethyl)-2-hydroxy-6-((4-methoxybenzyl)oxy)phenyl)(4-((tetrahydrofuran-3-yl)amino)isoindolin-2-yl)methanone] | 0.1 to 1 µM |
| O=C(c1c(O)cc(C(F)F)cc1OCc1ccccc1)N1Cc2cccc(OC3CCOC3)c2C1 (centres unmarked) [Example 4.79, (2-(Benzyloxy)-4-(difluoromethyl)-6-hydroxyphenyl)(4-((tetrahydrofuran-3-yl)oxy)isoindolin-2-yl)methanone] | 1 to 10 µM |
| Cn1cnc(-c2cc3c(c(N[C@H]4CCOC4)c2)CN(C(=O)c2c(O)cc(C(F)F)cc2OCc2ccccc2)C3)c1 [Example 4.25, (S)-(2-(Benzyloxy)-4-(difluoromethyl)-6-hydroxyphenyl)(6-(1-methyl-1H-imidazol-4-yl)-4-((tetrahydrofuran-3-yl)amino)isoindolin-2-yl)methanone] | 0.1 to 1 µM |
| COc1cc(O)c(C(=O)N2Cc3cccc(N[C@H]4CCOC4)c3C2)c(OCc2ccccc2)c1 [Example 1, (S)-(2-(Benzyloxy)-6-hydroxy-4-methoxyphenyl)(4-((tetrahydrofuran-3-yl)amino)isoindolin-2-yl)methanone] | 0.1 to 1 µM |
| CN(C)CCOc1ccc2c(c1)CCN(C(=O)c1c(O)cc(F)cc1OCc1ccccc1)C2 [Example 10.24, (2-(Benzyloxy)-4-fluoro-6-hydroxyphenyl)(6-(2-(dimethylamino)ethoxy)-3,4-dihydroisoquinolin-2(1H)-yl)methanone] | 1 to 10 µM |
| CN(C)CCOc1cc2c(c(N[C@@H]3CCOC3)c1)CN(C(=O)c1c(O)cc(C(F)F)cc1OCc1ccccc1)C2 [Example 4.75, (R)-(2-(Benzyloxy)-4-(difluoromethyl)-6-hydroxyphenyl) (6-(2-(dimethylamino)ethoxy)-4-((tetrahydrofuran-3-yl)amino)isoindolin-2-yl)methanone] | < 0.1 µM |
| O=C(c1c(O)cc(C(F)F)cc1OCc1ccccc1)N1CCc2cccc(NC3COC3)c2C1 [Example 4.7, (2-(Benzyloxy)-4-(difluoromethyl)-6-hydroxyphenyl)(8-(oxetan-3-ylamino)-3,4-dihydroisoquinolin-2(1H)-yl) methanone] | 0.1 to 1 µM |
| CN(C)CCOc1ccc2c(c1)CN(C(=O)c1c(O)cc(C(F)F)cc1OCc1ccccc1)CC2 [Example 4.40, (2-(Benzyloxy)-4-(difluoromethyl)-6-hydroxyphenyl)(7-(2-(dimethylamino)ethoxy)-3,4-dihydroisoquinolin-2(1H)-yl)methanone] | 0.1 to 1 µM |
| COc1ccc(COc2cc(C(F)F)cc(O)c2C(=O)N2CCc3cccc(N[C@H]4CCOC4)c3C2)cc1 [Example 4.11, (S)-(4-(Difluoromethyl)-2-hydroxy-6-((4-methoxybenzyl)oxy)phenyl)(8-((tetrahydrofuran-3-yl)amino)-3,4-dihydroisoquinolin-2(1H)-yl)methanone] | 0.1 to 1 µM |
| CN1CCC(Oc2cc3c(c(N[C@H]4CCOC4)c2)CN(C(=O)c2c(O)cc(C(F)F)cc2OCc2ccccc2)C3)CC1 [Example 4.62, (S)-(2-(Benzyloxy)-4-(difluoromethyl)-6-hydroxyphenyl)(6-((1-methylpiperidin-4-yl)oxy)-4-((tetrahydrofuran-3-yl)amino)isoindolin-2-yl)methanone] | < 0.1 µM |
| COCCNc1cccc2c1CN(C(=O)c1c(O)cc(C(F)F)cc1OCc1ccccc1)C2 [Example 4.28, (2-(Benzyloxy)-4-(difluoromethyl)-6-hydroxyphenyl) (4-((2-methoxyethyl)amino)isoindolin-2-yl)methanone] | 0.1 to 1 µM |
| CC(=O)N1CCC[C@H](Nc2cccc3c2CN(C(=O)c2c(O)cc(C#N)cc2OCc2ccccc2)C3)C1 [Example 10.18, (S)-4-(4-((1-Acetylpiperidin-3-yl)amino)isoindoline-2-carbonyl)-3-(benzyloxy)-5-hydroxybenzonitrile] | 0.1 to 1 µM |
| O=C(c1c(O)cc(C(F)F)cc1OCC12CC(CO1)C2)N1CCc2cccc(N[C@H]3CCOC3)c2C1 [Example 28.1, (S)-(2-((2-Oxabicyclo[2.1.1]hexan-1-yl)methoxy)-4-(difluoromethyl)-6-hydroxyphenyl)(8-((tetrahydrofuran-3-yl)amino)-3,4-dihydroisoquinolin-2(1H)-yl)methanone] | 1 to 10 µM |
| O=C(c1c(O)cc(C(F)F)cc1OCc1ccccc1)N1Cc2ccc(Oc3ccncn3)cc2C1 [Example 4.61] | 0.1 to 1 µM |
| Cn1cncc1-c1cc2c(c(N[C@H]3CCOC3)c1)CN(C(=O)c1c(O)cc(C(F)F)cc1OCc1ccccc1)CC2 [Example 4.26, (S)-(2-(Benzyloxy)-4-(difluoromethyl)-6-hydroxyphenyl) (6-(1-methyl-1H-imidazol-5-yl)-8-((tetrahydrofuran-3-yl)amino)-3,4-dihydroisoquinolin-2(1H)-yl)methanone] | 0.1 to 1 µM |
| N#Cc1cc(O)c(C(=O)N2Cc3cccc(N[C@H]4CCOC4)c3C2)c(OCc2ccccn2)c1 [Example 10.39, (S)-3-Hydroxy-5-(pyridin-2-ylmethoxy)-4-(4-((tetrahydrofuran-3-yl)amino)isoindoline-2-carbonyl)benzonitrile] | 0.1 to 1 µM |
| CN(C)CCOc1cc2c(c(N[C@@H]3CCOC3)c1)CN(C(=O)c1c(O)cc(Cl)cc1OCc1ccccc1)CC2 [Example 21, (R)-(2-(Benzyloxy)-4-chloro-6-hydroxyphenyl)(6-(2-(dimethylamino)ethoxy)-8-((tetrahydrofuran-3-yl)amino)-3,4-dihydroisoquinolin-2(1H)-yl)methanone] | < 0.1 µM |
| O=C(c1c(O)cc(Cl)cc1OCc1ccccc1)N1Cc2cccc(N[C@H]3CCOC3)c2C1 [Example 8, (S)-(2-(Benzyloxy)-4-chloro-6-hydroxyphenyl)(4-((tetrahydrofuran-3-yl)amino)isoindolin-2-yl)methanone] | 0.1 to 1 µM |
| CN1CC(Oc2ccc3c(c2)CN(C(=O)c2c(O)cc(C(F)F)cc2OCc2ccccc2)C3)C1 [Example 4.57, (2-(Benzyloxy)-4-(difluoromethyl)-6-hydroxyphenyl)(5-((1-methylazetidin-3-yl)oxy)isoindolin-2-yl)methanone] | < 0.1 µM |
| O=C(c1c(O)cc(C(F)F)cc1OCc1ccccc1)N1CCc2cccc(OC3CCOC3)c2C1 (centres unmarked) [Example 4.80] | 1 to 10 µM |
